Data taken from patent US11279678B2 (SHANGHAI ECUST BIOMEDICINE CO., LTD., priority 2017, dated 2022).

Tests used:
[1] = system: human lung cancer cell A549; experiment: In vitro antitumor activity on tumor cell lines (CCK-8 method), A549; type: cell-based; details: Homo sapiens, A549, 72 hours
Description: (§1) Evaluation of In Vitro Antitumor Activity of Compounds on Multiple Tumor Cell Lines (CCK-8 Method)
(§2) Take the living cells with more than 90% cells for testing. The cell proliferation inhibition test was performed using the EnoGeneCell™ Counting Kit-8 (CK-8) cell viability test kit. The cell was digested, counted and prepared into a cell suspension with a concentration of 1×10^5/mL. 100 μL cell suspension (1×10^4 cells per hole) was added to each hole in the 96-well plate. The 96-well plate was cultured in a 37° C., 5% CO2 incubator for 24 hours. With every hole added with 100 μL respective drugged cultured medium, control groups were set up, including negative control group, solvent control group, and positive control group. Each group has 5 holes. The 96-well plates were cultured at 37° C., in 5% CO2 incubator for 72 hours. Afterward, 10 μL CCK-8 solution was added to each hole, and the culture plate was incubated in the incubator for 4 hours, and the OD value at 450 nm was determined by enzyme labeling instrument. The inhibition rate and IC50 value of these compounds on tumor cells such as human gastric cancer cell MGC-803, human liver cancer cell HepG2, human lung cancer cell A549 and human breast cancer cell MDA-MB-231 were calculated.

in vivo = details: both, Kunming, mouse, po
Description: (§3) Acute Toxicity Test of Single Gastric Administration in Mice
(§4) Kunming mice (weight 17-22 g, equal male and female) were randomly grouped according to body weight, with 10 mice maximum per dose group in the experiment. […] Given by single intraperitoneal injection and a single intragastric injection, observations were done after 0.25 h, 0.5 h, 1 h, 2 h, 4 h, and 24 h respectively. The mortality rate was recorded. Afterward, the groups were observed once everyday, and the mortality rate was recorded for 14 days. On day 15, the living mice were sacrificed for pathological dissection.

[2] = system: human gastric cancer cell MGC-803; experiment: In vitro antitumor activity on tumor cell lines (CCK-8 method), MGC-803; type: cell-based; details: Homo sapiens, MGC-803, 72 hours
Description: as §1, §2

[3] = single intragastric administration, mice
Description: as §3, §4

[4] = system: gastric cancer MGC-803 transplanted tumor; experiment: Antitumor rate of oral administration in mice with MGC-803 transplanted tumor; type: in vivo; details: for Tumor inhibition rate (%): d0-d12 every 2 days, 7 times, tumor weight
Description: Antitumor rate of oral administration of the compound towards MGC-803 mice with transplanted tumor
After 1 week of adaptation, the mice were inoculated with gastric cancer MGC-803 tumor tissue subcutaneously. After the tumor grew for 100-300 mm^3, the animals were randomly grouped. For the drug group, each group of each compound had 6 mice, and 12 mice were in the control group. The intragastric administration was employed and the dosage of Ii, Ij, Ik and Il was 25 and 50 mg/kg. The positive control was CA4, the administration time was d0, d2, d4, d6, d8, d10, d12 days, 7 times in total. The tumor size was measured 3 times per week, together with mice weight. The mice were executed 14 days after inoculation and the tumor mass was taken and measured for its weight. The tumor inhibition rate was calculated as tumor weight inhibition rate, and the formula is tumor weight inhibition rate %=(1-treatment group average tumor weight/control group average tumor weight)×100%.

[5] = system: Hela cervical cancer cell line; experiment: In vitro proliferation inhibition of Hela cervical cancer cell line (MTT method); type: cell-based; details: Homo sapiens; Hela cervical cancer cell line, 48 hours drug exposure; read-out: IC50
Description: Evaluation of In Vitro Antitumor Activity of Hela Cervical Cancer Tumor Cell Lines with Compounds (MTT Method)
The cells were cultured in RPMI1640 medium containing 200 mL/L fetal bovine serum so that the cells were kept at logarithmic growth. The cells were inoculated to 96-well plate, with a density of 4˜8×10^4/ml, 37° C., and pre-cultured for 24 hours with added drugs. The drugs were set at 6 concentrations, each has 3 holes. After 48 hours of consequent effect, the nutrient solution was then removed and the cells were left for air-drying. Each hole was then added with cold 500 g/L trichloroacetic acid (TCA) 50 μL (final concentration of 100 g/L). After setting for 60 minutes, it was then rinsed for 4-5 times with ionized water and dried. Each hole then was added with 4 g/L SRB 100 μL left for 30 mins. Then it was rinsed with 10 mL/L acetic acid for 4 times, dried. Then 10 mmol Tris-base 200 μL per hole was added, then shaked and mixed, subsequently, oscillating on the plate oscillator for 5 min. The enzyme-linked immunoassay was used to determine the A value. To calibrate, a blank control was used, with a wavelength of 490 nm. Tumor inhibition rate (%)=(Average A value of the control cell hole−Average A value of the drugged hole A)/Average A value of the control cell hole×100%. The positive control cell holes were CA4, CB1, and CB1N. To calculate the IC50 value, the Logit method was used according to the cell growth inhibition rate of different concentrations of the drug.

[6] = system: human breast cancer cell MDA-MB-231; experiment: In vitro antitumor activity on tumor cell lines (CCK-8 method), MDA-MB-231; type: cell-based; details: Homo sapiens, MDA-MB-231, 72 hours
Description: as §1, §2

[7] = system: human liver cancer cell HepG2; experiment: In vitro antitumor activity on tumor cell lines (CCK-8 method), HepG2; type: cell-based; details: Homo sapiens, HepG2, 72 hours
Description: as §1, §2

## COc1ccc(CCc2cc(OC)c(OC)c(OC)c2)cc1OC(=O)CCn1cc(F)c(=O)[nH]c1=O [Compound Il, 5-(3,4,5-trimethoxyphenethyl)-2-methoxyphenyl-3-(5-fluoro-2,4-dioxo-3,4-dihydropyrimidin-1(2H)-yl)propanoate]
[1]
  IC50: < 0.3 nM
In vivo
  LD50 at 14 days: > 1000 mg/kg
[2]
  IC50: < 0.3 nM
[3]
  LD50: 1228 mg/kg
[4]; 25 mg/kg intragastric
  Tumor inhibition rate (%): 65%
[4]; 50 mg/kg intragastric
  Tumor inhibition rate (%): 90%
[4]; about 8 days after administration
  tumor size course: tendency to shrink
[5]
  IC50: 29.6 nM
[6]
  IC50: 0.25 nM
[7]
  IC50: 0.4 nM
